Publication PMC5218480 (PLoS ONE, 2017)

System: MV-4-11 cells
Assay: Gene expression microarray analysis (Affymetrix PrimeView) and GSEA
Assay type: cell-based, human
Set-up: RFU PODN (11730768_x_at) / Fold change /veh PODN (11730768_x_at) / RFU LINC00158 (11744669_a_at) / Fold change /veh LINC00158 (11744669_a_at) / RFU DUSP10 (11751237_a_at) / Fold change /veh DUSP10 (11751237_a_at) / RFU ID3 (11757404_x_at) / Fold change /veh ID3 (11757404_x_at) / RFU PLEKHG5 (11737974_s_at) / Fold change /veh PLEKHG5 (11737974_s_at) / RFU LRRC4B (11730491_at) / Fold change /veh LRRC4B (11730491_at) / RFU GIMAP4 (11747438_a_at) / Fold change /veh GIMAP4 (11747438_a_at) / RFU KRT8 (11758183_x_at) / Fold change /veh KRT8 (11758183_x_at) / RFU CNN1 (11734310_a_at) / Fold change /veh CNN1 (11734310_a_at) / RFU VPS37D (11726825_at) / Fold change /veh VPS37D (11726825_at) / RFU C10orf10 (11716522_x_at) / Fold change /veh C10orf10 (11716522_x_at) / RFU KIR2DL2 /// KIR2DL4 /// KIR2DL5A /// KIR2DL5B /// KIR2DS1 /// KIR2DS2 /// KIR2DS3 /// KIR2DS4 /// KIR3DL3 /// KIR3DL3 /// KIR3DS1 (11738374_at) / Fold change /veh KIR2DL2 /// KIR2DL4 /// KIR2DL5A /// KIR2DL5B /// KIR2DS1 /// KIR2DS2 /// KIR2DS3 /// KIR2DS4 /// KIR3DL3 /// KIR3DL3 /// KIR3DS1 (11738374_at) / RFU C1QL1 (11718748_at) / Fold change /veh C1QL1 (11718748_at) / RFU TMPRSS4 (11747572_a_at) / Fold change /veh TMPRSS4 (11747572_a_at) / RFU HAMP (11756126_x_at) / Fold change /veh HAMP (11756126_x_at) / RFU RNFT2 (11725882_a_at) / Fold change /veh RNFT2 (11725882_a_at) / RFU NR4A2 (11747474_a_at) / Fold change /veh NR4A2 (11747474_a_at) / RFU ABCC12 (11746883_a_at) / Fold change /veh ABCC12 (11746883_a_at) / RFU TMEM136 (11760407_x_at) / Fold change /veh TMEM136 (11760407_x_at) / RFU CLDN22 /// WWC2 (11732394_at) / Fold change /veh CLDN22 /// WWC2 (11732394_at) / RFU HLA-DPB1 (11760878_x_at) / Fold change /veh HLA-DPB1 (11760878_x_at) / RFU SPINT1 (11716480_a_at) / Fold change /veh SPINT1 (11716480_a_at) / RFU GAP43 (11754022_s_at) / Fold change /veh GAP43 (11754022_s_at) / RFU A4GNT (11735810_at) / Fold change /veh A4GNT (11735810_at) / RFU PRB3 (11715151_x_at) / Fold change /veh PRB3 (11715151_x_at) / RFU TUBB4B (11761932_at) / Fold change /veh TUBB4B (11761932_at) / RFU CAPN14 (11732068_a_at) / Fold change /veh CAPN14 (11732068_a_at) / RFU TMCC2 (11721928_a_at) / Fold change /veh TMCC2 (11721928_a_at) / RFU IRGQ (11745062_a_at) / Fold change /veh IRGQ (11745062_a_at) / RFU FAM174B (11720279_a_at) / Fold change /veh FAM174B (11720279_a_at) / RFU TMPRSS4 (11748680_a_at) / Fold change /veh TMPRSS4 (11748680_a_at) / RFU FAM212B (11763350_a_at) / Fold change /veh FAM212B (11763350_a_at) / RFU PLEKHG5 (11743358_a_at) / Fold change /veh PLEKHG5 (11743358_a_at) / RFU ZSCAN30 (11745921_a_at) / Fold change /veh ZSCAN30 (11745921_a_at) / RFU CMKLR1 (11741424_a_at) / Fold change /veh CMKLR1 (11741424_a_at) / RFU LOC101060620 /// MAPK8IP1 (11723275_at) / Fold change /veh LOC101060620 /// MAPK8IP1 (11723275_at) / RFU SPTSSB (11747773_x_at) / Fold change /veh SPTSSB (11747773_x_at) / RFU PRSS12 (11739890_at) / Fold change /veh PRSS12 (11739890_at) / RFU BIN1 (11741810_x_at) / Fold change /veh BIN1 (11741810_x_at) / RFU WNT11 (11732464_a_at) / Fold change /veh WNT11 (11732464_a_at) / RFU C10orf10 (11716521_a_at) / Fold change /veh C10orf10 (11716521_a_at) / RFU C5orf56 (11738089_at) / Fold change /veh C5orf56 (11738089_at) / RFU CYB561 (11721691_x_at) / Fold change /veh CYB561 (11721691_x_at) / RFU ANKRD19P (11752326_a_at) / Fold change /veh ANKRD19P (11752326_a_at) / RFU OR2T12 /// OR2T33 /// OR2T8 (11738714_s_at) / Fold change /veh OR2T12 /// OR2T33 /// OR2T8 (11738714_s_at) / RFU VCAN (11748164_a_at) / Fold change /veh VCAN (11748164_a_at) / RFU JSRP1 (11732532_at) / Fold change /veh JSRP1 (11732532_at) / RFU KRTAP10-11 (11738290_x_at) / Fold change /veh KRTAP10-11 (11738290_x_at) / RFU MYO3A (11730013_a_at) / Fold change /veh MYO3A (11730013_a_at) / RFU EBF3 (11725865_a_at) / Fold change /veh EBF3 (11725865_a_at) / RFU CAMK2N1 (11719241_x_at) / Fold change /veh CAMK2N1 (11719241_x_at) / RFU C5orf56 (11738088_a_at) / Fold change /veh C5orf56 (11738088_a_at) / RFU OLFML3 (11715873_a_at) / Fold change /veh OLFML3 (11715873_a_at) / RFU LOC100653217 /// NTM (11731650_a_at) / Fold change /veh LOC100653217 /// NTM (11731650_a_at) / RFU MAPK11 (11762145_a_at) / Fold change /veh MAPK11 (11762145_a_at) / RFU FIZ1 (11724087_x_at) / Fold change /veh FIZ1 (11724087_x_at) / RFU OASL (11726364_x_at) / Fold change /veh OASL (11726364_x_at) / RFU SOX15 (11748057_x_at) / Fold change /veh SOX15 (11748057_x_at) / RFU CD79A (11719716_a_at) / Fold change /veh CD79A (11719716_a_at) / RFU HIST1H1D (11736915_at) / Fold change /veh HIST1H1D (11736915_at) / RFU CASKIN2 (11723855_a_at) / Fold change /veh CASKIN2 (11723855_a_at) / RFU LOC730098 (11760151_x_at) / Fold change /veh LOC730098 (11760151_x_at) / RFU OR4N2 (11742367_at) / Fold change /veh OR4N2 (11742367_at) / RFU PRRT2 (11749266_a_at) / Fold change /veh PRRT2 (11749266_a_at) / RFU SNX32 (11753110_a_at) / Fold change /veh SNX32 (11753110_a_at) / RFU CDHR5 (11726645_a_at) / Fold change /veh CDHR5 (11726645_a_at) / RFU RCAN1 (11760418_a_at) / Fold change /veh RCAN1 (11760418_a_at) / RFU FAM167A (11723789_a_at) / Fold change /veh FAM167A (11723789_a_at) / RFU FAM26E (11764081_at) / Fold change /veh FAM26E (11764081_at) / RFU ISYNA1 (11749810_s_at) / Fold change /veh ISYNA1 (11749810_s_at) / RFU ACY1 (11761880_at) / Fold change /veh ACY1 (11761880_at) / RFU 11764098_at / Fold change /veh 11764098_at / RFU SAMD14 (11745864_x_at) / Fold change /veh SAMD14 (11745864_x_at) / RFU NPB (11741838_a_at) / Fold change /veh NPB (11741838_a_at) / RFU TMPRSS6 (11731388_a_at) / Fold change /veh TMPRSS6 (11731388_a_at) / RFU KRTAP10-2 (11738614_at) / Fold change /veh KRTAP10-2 (11738614_at) / RFU ARHGAP8 /// PRR5-ARHGAP8 (11727945_x_at) / Fold change /veh ARHGAP8 /// PRR5-ARHGAP8 (11727945_x_at) / RFU KRTAP5-7 /// NADSYN1 (11734609_at) / Fold change /veh KRTAP5-7 /// NADSYN1 (11734609_at) / RFU RASL12 (11751679_a_at) / Fold change /veh RASL12 (11751679_a_at) / RFU CDKN2B (11736163_a_at) / Fold change /veh CDKN2B (11736163_a_at) / RFU PRF1 (11729649_at) / Fold change /veh PRF1 (11729649_at) / RFU, ZNF638 /// ZNF638-IT1 / Fold change vs veh, ZNF638 /// ZNF638-IT1 / RFU, PANK3 / Fold change vs veh, PANK3 / RFU, SH3YL1 / Fold change vs veh, SH3YL1 / RFU, ZEB2 / Fold change vs veh, ZEB2 / RFU, NRIP1 / Fold change vs veh, NRIP1 / RFU, PTTG1IP / Fold change vs veh, PTTG1IP / RFU, CAPN2 / Fold change vs veh, CAPN2 / RFU, MED14 / Fold change vs veh, MED14 / RFU, SNORA58 / Fold change vs veh, SNORA58 / RFU, C1orf63 / Fold change vs veh, C1orf63 / RFU, LRRFIP1 / Fold change vs veh, LRRFIP1 / RFU, NDUFAF7 / Fold change vs veh, NDUFAF7 / RFU, SLC12A2 / Fold change vs veh, SLC12A2 / RFU, IBTK / Fold change vs veh, IBTK / RFU, ESF1 / Fold change vs veh, ESF1 / Fold change vs veh, TMEM50B / RFU, TAOK1 / Fold change vs veh, TAOK1 / RFU, ACBD3 / Fold change vs veh, ACBD3 / RFU, TMA16 / Fold change vs veh, TMA16 / RFU, RWDD3 / Fold change vs veh, RWDD3 / RFU, BCAT1 / Fold change vs veh, BCAT1 / RFU, EDEM3 / Fold change vs veh, EDEM3 / RFU, TMEM33 / Fold change vs veh, TMEM33 / RFU, WDR75 / Fold change vs veh, WDR75 / RFU, AHCTF1 / Fold change vs veh, AHCTF1 / RFU, TFRC / Fold change vs veh, TFRC / RFU, ZDHHC17 / Fold change vs veh, ZDHHC17 / RFU, NOM1 / Fold change vs veh, NOM1 / RFU, ARL8B / Fold change vs veh, ARL8B / RFU, ZBTB11 / Fold change vs veh, ZBTB11 / RFU, TAMM41 / Fold change vs veh, TAMM41 / RFU, KIAA1704 /// LOC100996395 / Fold change vs veh, KIAA1704 /// LOC100996395 / RFU, ING1 / Fold change vs veh, ING1 / RFU, TRMT61B / Fold change vs veh, TRMT61B / RFU, FUBP3 / Fold change vs veh, FUBP3 / RFU, TP53 / Fold change vs veh, TP53 / RFU, TNKS2 / Fold change vs veh, TNKS2 / RFU, ZFP14 / Fold change vs veh, ZFP14 / RFU, ACTR2 / Fold change vs veh, ACTR2 / RFU, PPP3R1 / Fold change vs veh, PPP3R1 / RFU, PIK3R1 / Fold change vs veh, PIK3R1 / RFU, HNRNPA1 / Fold change vs veh, HNRNPA1 / RFU, RNF170 / Fold change vs veh, RNF170 / RFU, ZNF28 / Fold change vs veh, ZNF28 / RFU, RNGTT / Fold change vs veh, RNGTT / RFU, OGT / Fold change vs veh, OGT / RFU, BRD1 / Fold change vs veh, BRD1 / RFU, MARS / Fold change vs veh, MARS / RFU, ZNF655 / Fold change vs veh, ZNF655 / RFU, FAHD1 / Fold change vs veh, FAHD1 / RFU, BDP1 / Fold change vs veh, BDP1 / RFU, LRRCC1 / Fold change vs veh, LRRCC1 / RFU, ARID1A / Fold change vs veh, ARID1A / RFU, ZNF146 / Fold change vs veh, ZNF146 / RFU, ZNF330 / Fold change vs veh, ZNF330 / RFU, GPN3 / Fold change vs veh, GPN3 / RFU, C9orf123 / Fold change vs veh, C9orf123 / RFU, N4BP2L2 / Fold change vs veh, N4BP2L2 / RFU, ARFIP1 / Fold change vs veh, ARFIP1 / RFU, FAM179B / Fold change vs veh, FAM179B / RFU, BCL10 / Fold change vs veh, BCL10 / RFU, UHRF1BP1L / Fold change vs veh, UHRF1BP1L / RFU, BET1 / Fold change vs veh, BET1 / RFU, CNOT2 / Fold change vs veh, CNOT2 / RFU, ZNF268 / Fold change vs veh, ZNF268 / Fold change vs veh, ZNF507 / RFU, DGCR2 / Fold change vs veh, DGCR2 / RFU, WDSUB1 / Fold change vs veh, WDSUB1 / Fold change vs veh, HSP90B1 /// MIR3652 / RFU, ADSS / Fold change vs veh, ADSS / RFU, GK / Fold change vs veh, GK / RFU, ZNF148 / Fold change vs veh, ZNF148 / RFU, TAF9 / Fold change vs veh, TAF9 / RFU, SLC1A5 / Fold change vs veh, SLC1A5 / RFU, SLMO2 / Fold change vs veh, SLMO2 / RFU, ABCC4 / Fold change vs veh, ABCC4 / RFU, LOC101060439 /// RAP1B / Fold change vs veh, LOC101060439 /// RAP1B / RFU, RFX7 / Fold change vs veh, RFX7 / RFU, GTPBP10 / Fold change vs veh, GTPBP10 / RFU, CNEP1R1 / Fold change vs veh, CNEP1R1 / RFU, BIVM-ERCC5 /// ERCC5 / Fold change vs veh, BIVM-ERCC5 /// ERCC5 / RFU, ILF3 / Fold change vs veh, ILF3 / RFU 11762660_at / Fold change /veh 11762660_at / RFU VCAN (11757783_s_at) / Fold change /veh VCAN (11757783_s_at) / RFU DDX43 (11728927_at) / Fold change /veh DDX43 (11728927_at) / RFU KRT8 (11758188_x_at) / Fold change /veh KRT8 (11758188_x_at) / RFU NKD1 (11759106_at) / Fold change /veh NKD1 (11759106_at) / RFU SRD5A1 (11742802_a_at) / Fold change /veh SRD5A1 (11742802_a_at) / RFU TPSAB1 /// TPSB2 (11721975_s_at) / Fold change /veh TPSAB1 /// TPSB2 (11721975_s_at) / RFU GSTM3 (11746129_a_at) / Fold change /veh GSTM3 (11746129_a_at) / RFU IL23R (11737362_x_at) / Fold change /veh IL23R (11737362_x_at) / RFU TMEM51 (11727254_a_at) / Fold change /veh TMEM51 (11727254_a_at) / RFU PIWIL2 (11732686_x_at) / Fold change /veh PIWIL2 (11732686_x_at) / RFU ORM1 (11744905_x_at) / Fold change /veh ORM1 (11744905_x_at) / RFU CCDC152 (11743942_at) / Fold change /veh CCDC152 (11743942_at) / RFU ECM1 (11717891_a_at) / Fold change /veh ECM1 (11717891_a_at) / RFU IL23R (11748794_a_at) / Fold change /veh IL23R (11748794_a_at) / RFU TNFAIP8L3 (11732012_x_at) / Fold change /veh TNFAIP8L3 (11732012_x_at) / RFU MBOAT4 (11741988_at) / Fold change /veh MBOAT4 (11741988_at) / RFU 11764193_at / Fold change /veh 11764193_at / RFU TMEM53 (11763286_at) / Fold change /veh TMEM53 (11763286_at) / RFU MAGEB2 (11727129_at) / Fold change /veh MAGEB2 (11727129_at) / RFU TMEM200A (11744735_a_at) / Fold change /veh TMEM200A (11744735_a_at) / RFU CCDC152 (11751479_a_at) / Fold change /veh CCDC152 (11751479_a_at) / RFU FAM211A (11726209_a_at) / Fold change /veh FAM211A (11726209_a_at) / RFU RGS16 (11746705_a_at) / Fold change /veh RGS16 (11746705_a_at) / RFU VCAN (11755009_s_at) / Fold change /veh VCAN (11755009_s_at) / RFU RHOB (11743442_s_at) / Fold change /veh RHOB (11743442_s_at) / RFU RGS16 (11720943_a_at) / Fold change /veh RGS16 (11720943_a_at) / RFU RGS16 (11720944_at) / Fold change /veh RGS16 (11720944_at) / RFU, VPS4B / Fold change vs veh, VPS4B / RFU, CREB1 / Fold change vs veh, CREB1 / RFU, DNAJC13 / Fold change vs veh, DNAJC13 / RFU, GNAQ / Fold change vs veh, GNAQ / RFU, CDK5R1 / Fold change vs veh, CDK5R1 / RFU, ZRANB3 / Fold change vs veh, ZRANB3 / RFU, CUL4A / Fold change vs veh, CUL4A / RFU, CCNY / Fold change vs veh, CCNY / RFU, UFL1 / Fold change vs veh, UFL1 / RFU, COG3 / Fold change vs veh, COG3 / RFU, DIAPH2 / Fold change vs veh, DIAPH2 / RFU, SKA2 / Fold change vs veh, SKA2 / RFU, AFF3 / Fold change vs veh, AFF3 / RFU, LMF1 / Fold change vs veh, LMF1 / RFU, IPO11 / Fold change vs veh, IPO11 / RFU, DFFB / Fold change vs veh, DFFB / RFU, FOXP1 / Fold change vs veh, FOXP1 / RFU, CARD8 / Fold change vs veh, CARD8 / RFU, STRN3 / Fold change vs veh, STRN3 / RFU, ADK / Fold change vs veh, ADK / RFU, RASSF2 / Fold change vs veh, RASSF2 / RFU, WIPF1 / Fold change vs veh, WIPF1 / RFU, LARP1B / Fold change vs veh, LARP1B / RFU, RASA1 / Fold change vs veh, RASA1 / RFU, RB1 / Fold change vs veh, RB1 / RFU, PPFIA1 / Fold change vs veh, PPFIA1 / RFU, MAT2A / Fold change vs veh, MAT2A / RFU, CCT5 / Fold change vs veh, CCT5 / RFU, WDR92 / Fold change vs veh, WDR92 / RFU, CUX1 / Fold change vs veh, CUX1 / RFU, TTC7A / Fold change vs veh, TTC7A / RFU, TMEM135 / Fold change vs veh, TMEM135 / RFU, DEPTOR / Fold change vs veh, DEPTOR / RFU, CPM / Fold change vs veh, CPM / RFU, DNAJB6 / Fold change vs veh, DNAJB6 / RFU, CACNA2D3 / Fold change vs veh, CACNA2D3 / RFU, DTX4 / Fold change vs veh, DTX4 / RFU, TFCP2 / Fold change vs veh, TFCP2 / RFU, GMCL1 /// GMCL1P1 / Fold change vs veh, GMCL1 /// GMCL1P1 / RFU, AEBP2 / Fold change vs veh, AEBP2 / RFU, SNHG1 /// SNORD22 /// SNORD25 /// SNORD26 /// SNORD27 /// SNORD28 /// SNORD29 /// SNORD31 / Fold change vs veh, SNHG1 /// SNORD22 /// SNORD25 /// SNORD26 /// SNORD27 /// SNORD28 /// SNORD29 /// SNORD31 / Fold change (Aza/veh), C12orf56 (ProbeSet 11735607_a_at) / Fold change (ACY-1035/veh), C12orf56 (ProbeSet 11735607_a_at) / Fold change (Aza/veh), FGFR1OP (ProbeSet 11751329_s_at) / Fold change (ACY-1035/veh), FGFR1OP (ProbeSet 11751329_s_at) / Fold change (Aza/veh), VPS36 (ProbeSet 11739960_a_at) / Fold change (ACY-1035/veh), VPS36 (ProbeSet 11739960_a_at) / RFU SYPL1 (11715823_x_at) / Fold change /veh SYPL1 (11715823_x_at) / RFU IGFBP7 (11715501_s_at) / Fold change /veh IGFBP7 (11715501_s_at) / RFU REEP3 (11722064_at) / Fold change /veh REEP3 (11722064_at) / RFU IGLL1 (11728026_x_at) / Fold change /veh IGLL1 (11728026_x_at): dose or concentration left out as unconfirmed
Conditions: ProbeSet 11721969_s_at; LIST B

## Nc1ccc(-c2cccs2)cc1NC(=O)c1ccc2c(c1)cc(C1CC1)n2CCN1CCOCC1 [ACY-1035]
  RFU, BDP1: 485.00 RFU
